Measurements from patent US20220288156A1, “TREATMENT” (QUEEN MARY UNIVERSITY OF LONDON, priority 2019, published 2022).

Tested on: cardiomyocytes
Assay: Cardiomyocyte size assessment after angiotensin II
Type: cell-based, mouse
Settings: 1 μM angiotensin II vs vehicle
Procedure: For cardiomyocyte hypertrophy assessment, 1 μM angiotensin II (Alfa Aesar, ThermoFisher Scientific) was added to cardiomyocyte growth media post serum starvation (i.e. 6 days post-culture), and this was refreshed the next day. Images of cardiomyocytes were captured using a bright field microscope at 40× magnification at 0, 24, and 48 hours post-angiotensin II treatment and analysed using ImageJ™ software.

“angiotensin II (DRVYIHPF; Angiotensin-2; UniProt P01019 25-32, looked up) [AngII, used to mimic the molecular stress of heart failure in cardiomyocytes]” was tested, and the cardiomyocyte cell size was “significant increase in cell size”.
